How the values were obtained:
redroot pigweed [1] = assay: Test Example 5: herbicidal effect by foliage application, plastic box (Table 20, symbol N); format: in vivo, redroot pigweed (Amaranthus retroflexus); details: foliage application, 320 g/ha, three weeks after application
Method in brief: (§1)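 Plants were sown into sterilized diluvial soil under about 1.5 cm cover and kept in a greenhouse at 25° C. to 30° C. Fourteen days on, foliage received an even spray of the diluted emulsion. Herbicidal or crop effect was judged three weeks afterwards.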

oval-leafed pondweed = assay: Test Example 1: herbicidal activity, application before weed generation under submerged conditions (Table 16, symbol C); format: in vivo, oval-leafed pondweed (Monochoria vaginalis); details: 320 g/ha applied herbicide
Method in brief: (§2)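 Submerged Wagner pots (alluvial soil, 4 cm water) sown with weed seeds and planted with 2.5-leaf rice seedlings; emulsifiable concentrate diluted in water applied to water surface on sowing day. Held in greenhouse at 25-30 °C; injury scored 0-5 by herbicidal rate after three weeks.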

Japanese bulrush = assay: Test Example 1: herbicidal activity, application before weed generation under submerged conditions (Table 16, symbol B); format: in vivo, Japanese bulrush (Schoenoplectus juncoides); details: 320 g/ha applied herbicide
Method in brief: as §2

blackgrass [2] = assay: Test Example 4: herbicidal effect by soil treatment (Table 19, symbol J); format: in vivo, blackgrass (Alopecurus myosuroides); details: amount of applied herbicide 320 g/ha
Method in brief: (§3)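 Pre-emergence style soil spray: seeds under ~1.5 cm sterilized diluvial soil received a uniform coat of emulsion diluted to the predetermined herbicide amount. Greenhouse 25–30° C; readout at week three on previously defined criteria.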

green foxtail [3] = assay: Test Example 5: herbicidal effect by foliage application, plastic box (Table 20, symbol G); format: in vivo, green foxtail (Setaria viridis); details: foliage application, 320 g/ha, three weeks after application
Method in brief: as §1

green foxtail [4] = assay: Test Example 4: herbicidal effect by soil treatment (Table 19, symbol G); format: in vivo, green foxtail (Setaria viridis); details: amount of applied herbicide 320 g/ha
Method in brief: as §3

windgrass [5] = assay: Test Example 5: herbicidal effect by foliage application, plastic box (Table 20, symbol L); format: in vivo, windgrass (Apera spica-venti); details: foliage application, 320 g/ha, three weeks after application
Method in brief: as §1

southern crabgrass [6] = assay: Test Example 5: herbicidal effect by foliage application, plastic box (Table 20, symbol F); format: in vivo, southern crabgrass (Digitaria ciliaris); details: foliage application, 320 g/ha, three weeks after application
Method in brief: as §1

redroot pigweed [7] = assay: Test Example 4: herbicidal effect by soil treatment (Table 19, symbol N); format: in vivo, redroot pigweed (Amaranthus retroflexus); details: amount of applied herbicide 320 g/ha
Method in brief: as §3

lambsquarters [8] = assay: Test Example 4: herbicidal effect by soil treatment (Table 19, symbol O); format: in vivo, lambsquarters (Chenopodium album); details: amount of applied herbicide 320 g/ha
Method in brief: as §3

Chinese sprangletop = assay: Test Example 3: herbicidal effect by foliage application, Wagner pot (Table 18, symbol D); format: in vivo, chinese sprangletop (Leptochloa chinensis); details: 320 g/ha
Method in brief: (§4)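 Plants were sown in alluvial soil held under 0.1–0.5 cm standing water and grown 14 days in a greenhouse at 25–30 °C. An emulsifiable formulation, water-diluted to the set dose, was then sprayed onto the foliage, and effects were scored three weeks later using previously defined criteria.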

false cleavers [9] = assay: Test Example 4: herbicidal effect by soil treatment (Table 19, symbol Q); format: in vivo, false cleavers (Galium spurium); details: amount of applied herbicide 320 g/ha
Method in brief: as §3

late watergrass = assay: Test Example 1: herbicidal activity, application before weed generation under submerged conditions (Table 16, symbol A); format: in vivo, late watergrass (Echinochloa oryzicola); details: 320 g/ha applied herbicide
Method in brief: as §2

Italian ryegrass [10] = assay: Test Example 5: herbicidal effect by foliage application, plastic box (Table 20, symbol K); format: in vivo, Italian ryegrass (Lolium multiflorum); details: foliage application, 320 g/ha, three weeks after application
Method in brief: as §1

velvetleaf [11] = assay: Test Example 5: herbicidal effect by foliage application, plastic box (Table 20, symbol M); format: in vivo, velvetleaf (Abutilon theophrasti); details: foliage application, 320 g/ha, three weeks after application
Method in brief: as §1

wild oat [12] = assay: Test Example 5: herbicidal effect by foliage application, plastic box (Table 20, symbol I); format: in vivo, wild oat (Avena fatua); details: foliage application, 320 g/ha, three weeks after application
Method in brief: as §1

lambsquarters [13] = assay: Test Example 5: herbicidal effect by foliage application, plastic box (Table 20, symbol O); format: in vivo, lambsquarters (Chenopodium album); details: foliage application, 320 g/ha, three weeks after application
Method in brief: as §1

southern crabgrass [14] = assay: Test Example 4: herbicidal effect by soil treatment (Table 19, symbol F); format: in vivo, southern crabgrass (Digitaria ciliaris); details: amount of applied herbicide 320 g/ha
Method in brief: as §3

barnyard grass [15] = assay: Test Example 5: herbicidal effect by foliage application, plastic box (Table 20, symbol H); format: in vivo, barnyard grass (Echinochloa crus-galli); details: foliage application, 320 g/ha, three weeks after application
Method in brief: as §1

blackgrass [16] = assay: Test Example 5: herbicidal effect by foliage application, plastic box (Table 20, symbol J); format: in vivo, blackgrass (Alopecurus myosuroides); details: foliage application, 320 g/ha, three weeks after application
Method in brief: as §1

chickweed [17] = assay: Test Example 5: herbicidal effect by foliage application, plastic box (Table 20, symbol P); format: in vivo, common chickweed (Stellaria media); details: foliage application, 320 g/ha, three weeks after application
Method in brief: as §1

rice flat sedge = assay: Test Example 3: herbicidal effect by foliage application, Wagner pot (Table 18, symbol E); format: in vivo, rice flat sedge (Cyperus iria); details: 320 g/ha
Method in brief: as §4

barnyard grass [18] = assay: Test Example 3: herbicidal effect by foliage application, Wagner pot (Table 18, symbol H); format: in vivo, barnyard grass (Echinochloa crus-galli); details: 320 g/ha
Method in brief: as §4

velvetleaf [19] = assay: Test Example 4: herbicidal effect by soil treatment (Table 19, symbol M); format: in vivo, velvetleaf (Abutilon theophrasti); details: amount of applied herbicide 320 g/ha
Method in brief: as §3

chickweed [20] = assay: Test Example 4: herbicidal effect by soil treatment (Table 19, symbol P); format: in vivo, common chickweed (Stellaria media); details: amount of applied herbicide 320 g/ha
Method in brief: as §3

barnyard grass [21] = assay: Test Example 4: herbicidal effect by soil treatment (Table 19, symbol H); format: in vivo, barnyard grass (Echinochloa crus-galli); details: amount of applied herbicide 320 g/ha
Method in brief: as §3

Italian ryegrass [22] = assay: Test Example 4: herbicidal effect by soil treatment (Table 19, symbol K); format: in vivo, Italian ryegrass (Lolium multiflorum); details: amount of applied herbicide 320 g/ha
Method in brief: as §3

wild oat [23] = assay: Test Example 4: herbicidal effect by soil treatment (Table 19, symbol I); format: in vivo, wild oat (Avena fatua); details: amount of applied herbicide 320 g/ha
Method in brief: as §3

persian speedwell [24] = assay: Test Example 4: herbicidal effect by soil treatment (Table 19, symbol R); format: in vivo, Persian speedwell (Veronica persica); details: amount of applied herbicide 320 g/ha
Method in brief: as §3

false cleavers [25] = assay: Test Example 5: herbicidal effect by foliage application, plastic box (Table 20, symbol Q); format: in vivo, false cleavers (Galium spurium); details: foliage application, 320 g/ha, three weeks after application
Method in brief: as §1

windgrass [26] = assay: Test Example 4: herbicidal effect by soil treatment (Table 19, symbol L); format: in vivo, windgrass (Apera spica-venti); details: amount of applied herbicide 320 g/ha
Method in brief: as §3

persian speedwell [27] = assay: Test Example 5: herbicidal effect by foliage application, plastic box (Table 20, symbol R); format: in vivo, Persian speedwell (Veronica persica); details: foliage application, 320 g/ha, three weeks after application
Method in brief: as §1

Compound	herbicidal effect grade, N: redroot pigweed (redroot pigweed [1])	Herbicidal effect on C: oval-leafed pondweed (grade 0-5) (oval-leafed pondweed)	Herbicidal effect on B: Japanese bulrush (grade 0-5) (Japanese bulrush)	herbicidal effect rating, J: blackgrass (blackgrass [2])	herbicidal effect grade, G: green foxtail (green foxtail [3])	herbicidal effect rating, G: green foxtail (green foxtail [4])	herbicidal effect grade, F: southern crabgrass (southern crabgrass [6])	herbicidal effect rating, N: redroot pigweed (redroot pigweed [7])	herbicidal effect rating, O: lambsquarters (lambsquarters [8])	herbicidal effect on D (Chinese sprangletop), rating 0-5 (Chinese sprangletop)	herbicidal effect rating, Q: false cleavers (false cleavers [9])	Herbicidal effect on A: late watergrass (grade 0-5) (late watergrass)	herbicidal effect grade, K: Italian ryegrass (Italian ryegrass [10])	herbicidal effect grade, M: velvetleaf (velvetleaf [11])	herbicidal effect grade, I: wild oat (wild oat [12])	herbicidal effect grade, O: lambsquarters (lambsquarters [13])	herbicidal effect rating, F: southern crabgrass (southern crabgrass [14])	herbicidal effect grade, H: barnyard grass (barnyard grass [15])	herbicidal effect grade, J: blackgrass (blackgrass [16])	herbicidal effect grade, P: chickweed (chickweed [17])	further results
Cc1nn(C)c(=O)c(-c2c(-c3ccccc3OC(C)C)sc3ccccc23)c1O [1-017]	4 (Herbicidal rate of 70% or more and less than 90%)	3 (Herbicidal rate of 40% or more and less than 70%)	3 (Herbicidal rate of 40% or more and less than 70%)	2 (Herbicidal rate of 20% or more and less than 40%)	4 (Herbicidal rate of 70% or more and less than 90%)	0 (Herbicidal rate of 5% or less (almost no effect))	3 (Herbicidal rate of 40% or more and less than 70%)	0 (Herbicidal rate of 5% or less (almost no effect))	0 (Herbicidal rate of 5% or less (almost no effect))	0 (Herbicidal rate of 5% or less (almost no effect))	0 (Herbicidal rate of 5% or less (almost no effect))	3 (Herbicidal rate of 40% or more and less than 70%)	2 (Herbicidal rate of 20% or more and less than 40%)	4 (Herbicidal rate of 70% or more and less than 90%)	4 (Herbicidal rate of 70% or more and less than 90%)	3 (Herbicidal rate of 40% or more and less than 70%)	0 (Herbicidal rate of 5% or less (almost no effect))	4 (Herbicidal rate of 70% or more and less than 90%)	4 (Herbicidal rate of 70% or more and less than 90%)	5 (Herbicidal rate of 90% or more (almost completely withered))	herbicidal effect grade, L: windgrass (windgrass [5]): 4 (Herbicidal rate of 70% or more and less than 90%); herbicidal effect on E (rice flat sedge), rating 0-5 (rice flat sedge): 3 (Herbicidal rate of 40% or more and less than 70%); herbicidal effect on H (barnyard grass), rating 0-5 (barnyard grass [18]): 5 (Herbicidal rate of 90% or more (almost completely withered)); herbicidal effect rating, M: velvetleaf (velvetleaf [19]): 0 (Herbicidal rate of 5% or less (almost no effect)); herbicidal effect rating, P: chickweed (chickweed [20]): 4 (Herbicidal rate of 70% or more and less than 90%); herbicidal effect rating, H: barnyard grass (barnyard grass [21]): 0 (Herbicidal rate of 5% or less (almost no effect)); herbicidal effect rating, K: Italian ryegrass (Italian ryegrass [22]): 0 (Herbicidal rate of 5% or less (almost no effect)); herbicidal effect rating, I: wild oat (wild oat [23]): 1 (Herbicidal rate of 5% or more and less than 20%); herbicidal effect rating, R: persian speedwell (persian speedwell [24]): 4 (Herbicidal rate of 70% or more and less than 90%); herbicidal effect grade, Q: false cleavers (false cleavers [25]): 5 (Herbicidal rate of 90% or more (almost completely withered)); herbicidal effect rating, L: windgrass (windgrass [26]): 0 (Herbicidal rate of 5% or less (almost no effect)); herbicidal effect grade, R: persian speedwell (persian speedwell [27]): 5 (Herbicidal rate of 90% or more (almost completely withered))
CCCC(=O)Oc1c(C)nn(C)c(=O)c1-c1c(-c2ccc(C(C)=O)cc2)sc2ccccc12 [1-042]	4 (Herbicidal rate of 70% or more and less than 90%)	3 (Herbicidal rate of 40% or more and less than 70%)	4 (Herbicidal rate of 70% or more and less than 90%)	0 (Herbicidal rate of 5% or less (almost no effect))	3 (Herbicidal rate of 40% or more and less than 70%)	3 (Herbicidal rate of 40% or more and less than 70%)	3 (Herbicidal rate of 40% or more and less than 70%)	5 (Herbicidal rate of 90% or more (almost completely withered))	3 (Herbicidal rate of 40% or more and less than 70%)	0 (Herbicidal rate of 5% or less (almost no effect))	0 (Herbicidal rate of 5% or less (almost no effect))	3 (Herbicidal rate of 40% or more and less than 70%)	4 (Herbicidal rate of 70% or more and less than 90%)	5 (Herbicidal rate of 90% or more (almost completely withered))	0 (Herbicidal rate of 5% or less (almost no effect))	3 (Herbicidal rate of 40% or more and less than 70%)	2 (Herbicidal rate of 20% or more and less than 40%)	3 (Herbicidal rate of 40% or more and less than 70%)	0 (Herbicidal rate of 5% or less (almost no effect))	5 (Herbicidal rate of 90% or more (almost completely withered))	herbicidal effect on E (rice flat sedge), rating 0-5 (rice flat sedge): 5 (Herbicidal rate of 90% or more (almost completely withered)); herbicidal effect on H (barnyard grass), rating 0-5 (barnyard grass [18]): 3 (Herbicidal rate of 40% or more and less than 70%); herbicidal effect rating, M: velvetleaf (velvetleaf [19]): 3 (Herbicidal rate of 40% or more and less than 70%); herbicidal effect rating, P: chickweed (chickweed [20]): 4 (Herbicidal rate of 70% or more and less than 90%); herbicidal effect rating, H: barnyard grass (barnyard grass [21]): 0 (Herbicidal rate of 5% or less (almost no effect)); herbicidal effect rating, K: Italian ryegrass (Italian ryegrass [22]): 3 (Herbicidal rate of 40% or more and less than 70%); herbicidal effect rating, I: wild oat (wild oat [23]): 0 (Herbicidal rate of 5% or less (almost no effect)); herbicidal effect rating, R: persian speedwell (persian speedwell [24]): 5 (Herbicidal rate of 90% or more (almost completely withered)); herbicidal effect grade, Q: false cleavers (false cleavers [25]): 2 (Herbicidal rate of 20% or more and less than 40%); herbicidal effect rating, L: windgrass (windgrass [26]): 0 (Herbicidal rate of 5% or less (almost no effect)); herbicidal effect grade, R: persian speedwell (persian speedwell [27]): 5 (Herbicidal rate of 90% or more (almost completely withered))
